Where a SMILES comes first, the peptide text is derived from it. The star is where a group is joined. Cbz = O=C(OCc1ccccc1)*; CH2F = FC*
Legend:
RIP-1 = target: T1, RIP-1 (Rattus norvegicus, UniProt D3ZYL0); assay: RIP-1 phosphorylation after retinal detachment (RIP-1 immunoprecipitation, anti-phosphoserine Western blot); format: in vivo; settings: two days after retinal detachment; subretinal Z-VAD 300 μM and/or Nec-1 400 μM at detachment
T1 construct: RIP-1 was immunoprecipitated from lysates of untreated retina and of retina treated with either vehicle, Nec-1, Z-VAD, or Nec-1+Z-VAD; from tissue; host or cells: retina (retinal lysates) of animals with experimental retinal detachment
T1 sequence (D3ZYL0 1-658): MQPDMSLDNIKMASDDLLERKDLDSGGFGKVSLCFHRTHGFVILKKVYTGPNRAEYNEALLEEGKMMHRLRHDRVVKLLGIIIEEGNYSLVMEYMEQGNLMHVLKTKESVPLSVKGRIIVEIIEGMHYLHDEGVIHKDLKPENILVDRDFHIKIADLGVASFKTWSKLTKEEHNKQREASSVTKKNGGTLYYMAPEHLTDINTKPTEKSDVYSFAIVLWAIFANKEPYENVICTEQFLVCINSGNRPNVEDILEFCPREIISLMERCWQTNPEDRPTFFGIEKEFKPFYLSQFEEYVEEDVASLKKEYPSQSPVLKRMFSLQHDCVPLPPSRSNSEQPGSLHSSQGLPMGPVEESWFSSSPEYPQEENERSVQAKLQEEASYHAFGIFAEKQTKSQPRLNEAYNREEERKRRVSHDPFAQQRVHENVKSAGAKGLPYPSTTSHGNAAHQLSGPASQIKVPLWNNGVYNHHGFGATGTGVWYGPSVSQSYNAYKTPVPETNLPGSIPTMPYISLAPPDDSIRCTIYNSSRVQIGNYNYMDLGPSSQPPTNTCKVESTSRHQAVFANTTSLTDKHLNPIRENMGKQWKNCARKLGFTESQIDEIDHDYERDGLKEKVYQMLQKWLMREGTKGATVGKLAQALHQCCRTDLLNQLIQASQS
Procedure: Equal amount of retinal lysates (1 mg) were incubated with 1 μg anti-RIP-1 antibody (BD Biosciences) and 20 μl of Protein A/G Agarose beads (Thermo Scientific, Rockford, Ill.) at 4° C. overnight. Beads were washed 5 times with lysis buffer and TBS, and the immunopellets were then subjected to Western blotting.
RIP-1 is phosphorylated at several serine residues in its kinase domain during programmed necrosis and Nec-1 inhibits this phosphorylation (Degterev (2008) supra; Cho Y et al. (2009) Cell 137:1100-1111). To investigate the role of RIP-1 kinase in retinal detachment-induced photoreceptor death, the phosphorylation status of RIP-1 was first assessed by immunoprecipitating RIP-1 from the retina (FIG. 3A) and then blotting with an anti-phosphoserine antibody. RIP-1 was immunoprecipitated from retinal lysates. One mg of retinal lysates were incubated with anti-RIP-1 antibody and Protein A/G agarose beads. Extracts before (Pre) and after (Post) immunoprecipitation and the immunopellets (IP) were run on a 4-12% SDS-PAGE and blotted with anti-RIP-1 antibody. […]
To determine the effect of Nec-1 and a pan-caspase inhibitor on the phosphorylation of RIP-1, Z-VAD (300 μM) and/or a Nec-1 compound of Formula I-C (400 μM) were injected subretinally in the animal at the time of retinal detachment induction. […] Phosphorylation of RIP-1 was then assessed by Western blot analysis. […]

photoreceptors = assay: Normalized ONL thickness ratio after experimental retinal detachment; format: in vivo, rat; settings: subretinal Z-VAD 300 μM and/or Nec-1 400 μM
Procedure: Photoreceptor death was also assessed by TUNEL analysis at three days after retinal detachment in retina treated with either vehicle, Nec-1, Z-VAD or Nec-1+Z-VAD. […] Nine sections for each eye specimen were randomly selected, and the central area of detached retina and the mid-peripheral region of attached retina were photographed. The ONL thickness ratio was measured at ten points in each section by masked observers. […] (GCL: ganglion cell layer, INL: inner nuclear layer. *, P<0.05. Scale bar, 100 μm). […]
TNF-α protein contents in rat retina were determined using ELISA Kit for rat TNF-α (Invitrogen, Carlsbad, Calif.). Goat anti-mouse/rat TNF-α blocking antibody was purchased from R&D Systems (Minneapolis, Minn.). The rat eyes were subretinally injected with 1% of sodium hyaluronate containing 0.1 mg/ml of anti-TNF-α antibody or control antibody.

[1] = tested on: CD11b-positive macrophage/microglia; assay: CD11b immunohistochemistry after retinal detachment; format: in vivo; settings: day three after retinal detachment
Procedure: Immunohistochemistry (IHC) was performed as previously reported (Murakami Y et al. (2008) AM J PATHOL 173:1326-1338). Rat anti-CD11b antibody (1:50; BD Biosciences, San Diego, Calif.) was used as the primary antibody. The specimens were imaged by confocal microscopy using the Leica HCX APOL40× lens.
Since the release of intracellular content in necrosis results in secondary inflammation, changes in the inflammatory response after retinal detachment were investigated by immunohistochemistry and immunofluorescence with an antibody against CD11b. FIG. 11A-B show IHC for CD11b (FIG. 11A) and quantification of CD11b-positive cells in control retina without retinal detachment and in retina treated with vehicle, Z-VAD or Z-VAD+Nec-1 (n=6 each) (FIG. 11B) at three days after retinal detachment. (*, P<0.05; **, P<0.01; NS, not significant; Scale bar, 50 μm).

primary RPE cells = assay: Viability of primary RPE cells treated with poly I:C (Cell Counting Kit-8); format: cell-based, mice; settings: WT primary RPE cells, 5 μg/ml poly I:C for 48 hours
Procedure: (§1) As described in Example 11, primary RPE cells were extracted from the retina of mice and cultured in the presence of 5 μg/ml of poly I:C for 48 hours or with PBS. Cell viability was measured using Cell Counting Kit-8 (Dojindo Laboratories, Kumamoto, Japan). This assay is based on the cleavage of 2-(2-methoxy-4-nitrophenyl)-3-(4-nitrophenyl)-5-(2,4-disulfophenyl)-2H-tetrazolium, monosodium salt (WST-8) by the mitochondrial dehydrogenase enzyme to produce a formazan dye. After incubation with WST-8 for two hours at 37° C., absorbance was measured at 450 nm to determine cell viability.

RIP-3−/− RPE cells = assay: Viability of RIP-3−/− RPE cells treated with poly I:C (Cell Counting Kit-8); format: cell-based, mice
Procedure: as §1
Without poly I:C treatment, the viability of RPE cells was similar in WT and RIP-3−/− cells.

SMILES: COC(=O)CC(NC(=O)C(C)NC(=O)C(NC(=O)OCc1ccccc1)C(C)C)C(=O)CF (stereo not drawn) [Z-VAD, Benzyloxycarbonyl-Val-Ala-Asp(OMe)-fluoromethylketone] (Cbz-Val-Ala-Asp(OMe)-CH2F; configuration not given here)
- RIP-1 phosphorylation (RIP-1): elevated
- normalized ONL thickness ratio (photoreceptors; five days after retinal detachment): 0.54±0.10
- normalized ONL thickness ratio (photoreceptors; three days after retinal detachment): 0.72±0.08
- infiltration of CD11b-positive cells in the retina [1]: 514.7±54.5 cells/mm^2
- viability of RPE cells (primary RPE cells): did not protect WT RPE cells
- viability of RPE cells (RIP-3−/− RPE cells): protected from cell death

Source: patent US10639345B2, “Compositions for preserving photoreceptor cells, retinal pigment epithelial cells, or visual function” (Massachusetts Eye and Ear Infirmary, priority 2010, dated 2020)
